{
  "source": "patent US8088804B2",
  "about": "“N-hydroxyamide derivatives possessing antibacterial activity” (Pfizer Inc., priority 2005, dated 2012)",
  "key": {"E. coli (2)": {"system": "E. coli (2)", "test": "Susceptibility testing (MIC, CLSI microdilution)", "format": "cell-based, Escherichia coli", "details": "20 h at 35° C., in µg/mL (unit assumed)", "protocol": "(§1) Compounds were tested following the microdilution method of CLSI (Clinical and Laboratory Standards Institute. Methods for dilution antimicrobial susceptibility tests for bacteria that grow aerobically; Approved standard—sixth edition. CLSI document M7-A5, CLSI, Wayne, Pa. 2003). Assays were performed in sterile plastic 96-well microtiter trays with round bottom wells (Greiner).\n(§2) Stock solutions of test compounds and control antibiotics were prepared at 10 mg/ml in DMSO. Serial 2-fold dilutions of each drug were performed in a microtiter plate across each row using DMSO as solvent at 100-fold the desired final concentration. Wells in columns #1-11 contain drug and column #12 was kept as a growth control for the organism with no drug. Each well in the mother plate was diluted with sterile deionized water and DMSO, mixed, and volumes of 10 μl distributed to each well in the resulting assay plates.\n(§3) Stock cultures were prepared using the Microbank™ method (Pro-Lab Diagnostics) and stored at −80° C. To propagate each strain, one bead was removed from the frozen vial and aseptically streaked onto Trypticase Soy Agar (Difco) which were incubated at 35° C. Standardized inocula were prepared using the direct colony suspension method according to CLSI guidelines (Clinical and Laboratory Standards Institute. Methods for dilution antimicrobial susceptibility tests for bacteria that grow aerobically; Approved standard—sixth edition. CLSI document M7-A5, CLSI, Wayne, Pa., 2003). Isolated colonies were selected from an 18-24 hr agar plate and resuspended in 0.9% sterile saline to match a 0.5 McFarland turbidity standard using a calorimeter (Vitek) at 80% of transmitance. The suspension was used within 15 minutes of preparation.\n(§4) Mueller-Hinton Broth (MHB) (Difco) was prepared at a 1.1× concentration and supplemented with Ca++ and Mg++ as recommended by CLSI. For each organism, the standardized suspension was diluted 1:180 into appropriate growth medium in a sterile reservoir. After mixing, wells in the drug-containing assay plates were inoculated with a volume of 90 μl. Thus, for each minimum inhibitory concentration (MIC) determination, each well contains a final volume of 100 μl with an inoculum size of approximately 5×10^5 colony forming units (cfu)/ml and no more than 1% DMSO.\n(§5) The completed microtiter plates were incubated 20 h at 35° C. in ambient air. Optical density of each well was determined at 600 nm using a VersaMax Microplate reader (Molecular Devices, Sunnyvale, Calif.). The MIC was defined as the lowest drug concentration causing complete suppression of visible bacterial growth."}, "E. coli tolC": {"system": "E. coli tolC", "test": "Susceptibility testing (MIC, CLSI microdilution)", "format": "cell-based, Escherichia coli", "details": "20 h at 35° C., unit assumed", "protocol": "as §1, §2, §3, §4, §5"}, "P. aerug. (2)": {"system": "P. aerug. (2)", "test": "Susceptibility testing (MIC, CLSI microdilution)", "format": "cell-based, Pseudomonas aeruginosa", "details": "20 h at 35° C., in µg/mL (unit assumed)", "protocol": "as §1, §2, §3, §4, §5"}, "P. aerug. Hypersuc": {"system": "P. aerug. Hypersuc", "test": "Susceptibility testing (MIC, CLSI microdilution)", "format": "cell-based, Pseudomonas aeruginosa", "details": "20 h at 35° C., Δ efflux, hypersusceptible strain, unit assumed", "protocol": "as §1, §2, §3, §4, §5"}, "K. pneu.": {"system": "K. pneu.", "test": "Susceptibility testing (MIC, CLSI microdilution)", "format": "cell-based, Klebsiella pneumoniae", "details": "20 h at 35° C., unit assumed", "protocol": "as §1, §2, §3, §4, §5"}, "H. influen.": {"system": "H. influen.", "test": "Susceptibility testing (MIC, CLSI microdilution)", "format": "cell-based, Haemophilus influenzae", "details": "20 h at 35° C., unit assumed", "protocol": "as §1, §2, §3, §4, §5"}, "P. ae LpxC enzyme": {"biological_target": "P. ae LpxC enzyme (Pseudomonas aeruginosa, UniProt P47205)", "sequence (P47205 whole entry)": "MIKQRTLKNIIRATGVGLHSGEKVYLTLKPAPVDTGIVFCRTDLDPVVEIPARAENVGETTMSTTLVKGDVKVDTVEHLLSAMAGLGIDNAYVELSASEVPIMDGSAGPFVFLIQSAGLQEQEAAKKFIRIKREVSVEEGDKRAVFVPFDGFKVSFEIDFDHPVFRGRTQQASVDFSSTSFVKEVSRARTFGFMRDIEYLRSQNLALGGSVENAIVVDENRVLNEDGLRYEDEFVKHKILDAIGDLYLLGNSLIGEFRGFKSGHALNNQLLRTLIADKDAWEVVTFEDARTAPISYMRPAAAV", "test": "Enzyme inhibition testing (fluorescamine assay)", "format": "biochemical", "protocol": "Compounds were tested based on a published method (Wang W., 2001, Anal Biochem, 290, 338-46) with modifications. Enzyme assays were performed in the assay buffer (50 mM HEPES, pH8, 0.005% Brij, 50 μM ZnSO4, 1 mg/ml BSA) in 96-well V-bottom microtiter plates.\nStock solutions of test compounds and control antibiotics are prepared at 10 mg/ml in DMSO and are diluted in the assay buffer to 6-fold the final testing concentration. 5 μl compound dilution is distributed to the well of the assay plate. EDTA is used as positive control and the final concentration in assay is 12.5 mM.\nP. ae LpxC enzyme dilution in the assay buffer is added to the compound in plate and pre-incubated with the compound at room temperature for 10 min. LpxC substrate is added to initiate the enzyme reaction and the final enzyme and substrate concentrations are 1.2 μM and 0.4 mM, respectively. The reaction continues at RT for 4 hrs before diluted with 45 μl of Borate buffer (0.4 M, pH9), followed by addition of 40 μl derivatization reagent (fluorescamine 2 mg/ml DMF). This mixture is incubated at RT for 10 min followed by addition of 150 μl DMF/H2O (1:1). The resulting solution is loaded onto Millipore filter unit (Microcon 10 k MWCO) and spun at 13 k rpm on bench top centrifuge for 15 min. 100 μl of this filtrate is transferred to a low fluorescence clear-bottom 96-well plate (Corning) and the fluorescence is detected at ex360 nm and em465 nm on a Tecan fluorescence plate reader. The percent inhibition is calculated based on EDTA produces 100% inhibition and negative control produces 100% activity."}, "[1]": {"details": "@0.1 μg/ml, read-out: ENZYME (percent inhibition)"}},
  "data": [
    {"smiles": "CCOc1ccc(-c2ccc(C(=O)N3CCS(=O)(=O)[C@H]3C(=O)NO)cc2)cc1", "note": "[Compound 33, (S)-3-(4′-Ethoxybiphenylcarbonyl)-N-hydroxythiazolidinesulfone-2-carboxamide]", "values": [
      {"measurement": "MIC E. coli (2)", "setting": "E. coli (2)", "result": ">64"},
      {"measurement": "MIC E. coli tolC", "setting": "E. coli tolC", "result": "≤ 0.06", "unit": "µg/mL"},
      {"measurement": "MIC P. aerug. (2)", "setting": "P. aerug. (2)", "result": "4-16"},
      {"measurement": "MIC P. aerug. Hypersuc", "setting": "P. aerug. Hypersuc", "result": 2, "unit": "µg/mL"},
      {"measurement": "MIC K. pneu.", "setting": "K. pneu.", "result": 32, "unit": "µg/mL"},
      {"measurement": "MIC H. influen.", "setting": "H. influen.", "result": 16, "unit": "µg/mL"},
      {"measurement": "inhibition at 0.1 µg/mL", "setting": "P. ae LpxC enzyme; [1]", "result": 12, "unit": "%"}
    ]},
    {"smiles": "CCc1ccc(-c2ccc(C(=O)N3CC[C@@H](N)[C@H]3C(=O)NO)cc2)cc1", "note": "[Compound 34, (2S,3R)-3-Amino-N-hydroxy-1-(4′-ethylbiphenylcarbonyl)pyrrolidine-2-carboxamide]", "values": [
      {"measurement": "MIC E. coli (2)", "setting": "E. coli (2)", "result": ">64"},
      {"measurement": "MIC E. coli tolC", "setting": "E. coli tolC", "result": "> 64", "unit": "µg/mL"},
      {"measurement": "MIC P. aerug. (2)", "setting": "P. aerug. (2)", "result": "16-32"},
      {"measurement": "MIC P. aerug. Hypersuc", "setting": "P. aerug. Hypersuc", "result": 64, "unit": "µg/mL"},
      {"measurement": "MIC K. pneu.", "setting": "K. pneu.", "result": "> 64", "unit": "µg/mL"},
      {"measurement": "MIC H. influen.", "setting": "H. influen.", "result": "> 64", "unit": "µg/mL"},
      {"measurement": "inhibition at 0.5 µg/mL", "setting": "P. ae LpxC enzyme; @0.5 μg/ml, read-out: ENZYME (percent inhibition)", "result": 93, "unit": "%"}
    ]},
    {"smiles": "O=C(NO)[C@H]1N(C(=O)c2ccc(Oc3ccccc3)cc2)CCS1(=O)=O", "note": "[Compound 35, (S)-N-Hydroxy-3-(4-phenoxybenzoyl)thiazolidinesulfone-2-carboxamide]", "values": [
      {"measurement": "MIC E. coli (2)", "setting": "E. coli (2)", "result": ">64"},
      {"measurement": "MIC E. coli tolC", "setting": "E. coli tolC", "result": 0.125, "unit": "µg/mL"},
      {"measurement": "MIC P. aerug. (2)", "setting": "P. aerug. (2)", "result": ">64"},
      {"measurement": "MIC P. aerug. Hypersuc", "setting": "P. aerug. Hypersuc", "result": "> 64", "unit": "µg/mL"},
      {"measurement": "MIC K. pneu.", "setting": "K. pneu.", "result": "> 64", "unit": "µg/mL"},
      {"measurement": "MIC H. influen.", "setting": "H. influen.", "result": "> 64", "unit": "µg/mL"},
      {"measurement": "inhibition at 0.1 µg/mL", "setting": "P. ae LpxC enzyme; [1]", "result": 21, "unit": "%"}
    ]},
    {"smiles": "O=C(NO)[C@H]1N(C(=O)c2ccc(-c3ccc(F)cc3)cc2)CCS1(=O)=O", "note": "[Compound 37, (S)-3-(4′-Fluorobiphenylcarbonyl)-N-hydroxythiazolidinesulfone-2-carboxamide]", "values": [
      {"measurement": "MIC E. coli (2)", "setting": "E. coli (2)", "result": ">64"},
      {"measurement": "MIC E. coli tolC", "setting": "E. coli tolC", "result": "≤ 0.06", "unit": "µg/mL"},
      {"measurement": "MIC P. aerug. (2)", "setting": "P. aerug. (2)", "result": "4-32"},
      {"measurement": "MIC P. aerug. Hypersuc", "setting": "P. aerug. Hypersuc", "result": 2, "unit": "µg/mL"},
      {"measurement": "MIC K. pneu.", "setting": "K. pneu.", "result": "> 64", "unit": "µg/mL"},
      {"measurement": "MIC H. influen.", "setting": "H. influen.", "result": "> 64", "unit": "µg/mL"},
      {"measurement": "ENZYME (percent inhibition)", "setting": "P. ae LpxC enzyme; @0.1 μg/ml", "result": 42, "unit": "%"},
      {"measurement": "inhibition at 0.1 µg/mL", "setting": "P. ae LpxC enzyme; [1]", "result": 32, "unit": "%"}
    ]},
    {"smiles": "O=C(NO)[C@H]1N(C(=O)c2ccc(-c3ccc(C(F)(F)F)cc3)cc2)CCS1(=O)=O", "note": "[Compound 38, (S)-3-(4′-(Trifluoromethyl)biphenylcarbonyl)-N-hydroxythiazolidinesulfone-2-carboxamide]", "values": [
      {"measurement": "MIC E. coli (2)", "setting": "E. coli (2)", "result": ">64"},
      {"measurement": "MIC E. coli tolC", "setting": "E. coli tolC", "result": "≤ 0.06", "unit": "µg/mL"},
      {"measurement": "MIC P. aerug. (2)", "setting": "P. aerug. (2)", "result": 32},
      {"measurement": "MIC P. aerug. Hypersuc", "setting": "P. aerug. Hypersuc", "result": 8, "unit": "µg/mL"},
      {"measurement": "MIC K. pneu.", "setting": "K. pneu.", "result": "> 64", "unit": "µg/mL"},
      {"measurement": "MIC H. influen.", "setting": "H. influen.", "result": "> 64", "unit": "µg/mL"},
      {"measurement": "inhibition at 0.1 µg/mL", "setting": "P. ae LpxC enzyme; [1]", "result": 30, "unit": "%"}
    ]},
    {"smiles": "COc1ccc(C(=O)N2CC[C@@H](O)[C@H]2C(=O)NO)cc1SC(F)(F)F", "note": "[Compound 40, (2S,3R)-3-Hydroxy-N-hydroxy-1-(4-methoxy-3-trifluoromethylsulfanyl-benzoyl)-pyrrolidine-2-carboxamide]", "values": [
      {"measurement": "MIC E. coli (2)", "setting": "E. coli (2)", "result": ">64"},
      {"measurement": "MIC E. coli tolC", "setting": "E. coli tolC", "result": 32, "unit": "µg/mL"},
      {"measurement": "MIC P. aerug. (2)", "setting": "P. aerug. (2)", "result": ">64"},
      {"measurement": "MIC P. aerug. Hypersuc", "setting": "P. aerug. Hypersuc", "result": "> 64", "unit": "µg/mL"},
      {"measurement": "MIC K. pneu.", "setting": "K. pneu.", "result": 64, "unit": "µg/mL"},
      {"measurement": "MIC H. influen.", "setting": "H. influen.", "result": "> 64", "unit": "µg/mL"},
      {"measurement": "inhibition at 10 µg/mL", "setting": "P. ae LpxC enzyme; @10 μg/ml, read-out: ENZYME (percent inhibition)", "result": 52, "unit": "%"}
    ]}
  ]
}
